Experimental data reported in US9320810B2, “HMGN2 peptides and related molecules that selectively home to tumor blood vessels and tumor cells” (Sanford-Burnham Medical Research Institute, priority 2002, dated 2016).
Where no end group is shown, it is not given here.

Assays:
[1] = system: human bone marrow mononuclear cells; assay: Flow cytometry of fluorescein-labeled peptide binding to human bone marrow mononuclear cells; assay type: cell-based; settings: FIG. 4, fluorescent peptide
Procedure: Fluorescein-labeled SEQ ID NO: 9 or control peptide SEQ ID NO: 13 (2 μM) were incubated with gradient-depleted bone marrow cells for one hour at 4° C. and analyzed in a flow cytometer. […] The SEQ ID NO: 9-positive cells were the size of lymphocytes, agranular, CD45-positive and mostly CD34-negative, a marker profile similar to that of the lineage-depleted murine bone marrow cells used in the in vitro phage selection.
Flow cytometry was performed as follows. Human bone marrow specimens represented excess material from samples collected for diagnostic purposes from adults with hematological malignancies following informed consent. A total of 2 ml of bone marrow was aspirated from the posterior iliac crest and stored in a citrate anticoagulant. Mononuclear cells were isolated by gradient centrifugation (Ficoll-Paque PLUS; Amersham Pharmacia Biotech; Uppsala, Sweden) and incubated in RPMI-1640 media supplemented with 10% FBS for two hours at 37° C. Cells subsequently were transferred to 4° C. and incubated with 1-2 μM fluorescein-conjugated peptide for 45 minutes before staining with PerCP- or PE-conjugated CD34 and CD45 antibodies (Beckton Dickinson Biosciences; San Jose, Calif.) for 30 minutes. Samples were analyzed with either a FACSCalibur or LSR flow cytometer (Beckton Dickinson Biosciences); 100,000 events were collected.

HL-60 xenograft tumors = assay: Tissue localization of intravenously injected fluorescein-conjugated peptide, HL-60 xenograft mice; assay type: in vivo, mouse; settings: tail vein
Procedure: To study peptide localization, fluorescein-conjugated SEQ ID NO: 9 or ARALPSQRSR (SEQ ID NO: 13) was injected into the tail vein of mice bearing HL-60 or MDA-MB-435 xenografts. Peptide injection was followed 10 minutes later by injection of biotinylated tomato lectin, a marker of the vasculature. After another five minutes, mice were perfused through the heart with fixative solution, and the organs dissected, sectioned and stained with streptavidin-AlexaFluor 594. Slides were counter-stained with DAPI and examined under an inverted fluorescent microscope.
As shown in FIGS. 3A and G-J, fluorescence predominantly localized to nuclei, with most of the tumor cells containing fluorescence positioned close to blood vessels. […] In some microscopic fields, SEQ ID NO: 9 fluorescence essentially was limited to the endothelial cells, clearly illustrating the expression of peptide SEQ ID NO: 9 within endothelial cells and their nuclei (see FIG. 3F).
Histological analyses were performed as follows. […] Biotin-conjugated lectin was detected with streptavidin-Alexa 594 (Molecular Probes; Eugene, Oreg.); the slides were mounted with Vectashield-DAPI (Vector Laboratories; Burlingame, Calif.), and examined under an inverted fluorescent microscope.

mitochondrial membranes = settings: cited from earlier work
HL-60 cells = assay: Phage binding to cultured HL-60 cells in vitro; assay type: cell-based, human; settings: phage-displayed HMGN1 exon 3 sequence
Procedure: (§1) In particular, about 1000 times more SEQ ID NO:5-displaying phage than non-recombinant T7 phage bound to cultured HL-60 or MDA-MB-435 cells in vitro. Similarly, SEQ ID NO:5-displaying also bound cell suspensions prepared from HL-60 tumors with a 1000-fold specificity relative to control T7 phage.
The phage binding assay was performed essentially as follows. Attachment of phage to cells was quantified by incubating 1×10^8 pfu of phage displaying SEQ ID NO: 9 for 60 minutes with 1×10^6 HL-60 cells at 4° C. in Tris-buffered saline with 1 mM Ca^+2 and 1 mM MgCl2. Bound phage were rescued after four washes with phosphate-buffered saline by adding 1 ml of bacteria for 7 minutes at room temperature. Bound phage were quantified by plating and counting pfu.
Binding of SEQ ID NO: 9-displaying phage to tumor cells was inhibited by free SEQ ID NO: 9 peptide in a dose dependent fashion. […] In contrast, background binding of non-recombinant phage was unaffected by free peptide. Specificity of cell binding by peptide SEQ ID NO: 9 was further confirmed by comparing HL-60 cell binding of phage expressing the HMGN2 exon 3 sequence PQRRSARLSA (SEQ ID NO: 11) to binding with phage expressing the homologous HMGN1 exon 3 sequence PKRRSARLSA (SEQ ID NO: 12).

[2] = system: primary cells obtained from HL-60 xenograft tumors; assay: Phage binding to primary cells obtained from HL-60 xenograft tumors; assay type: cell-based, human; settings: phage-displayed
Description: as §1
Phage displaying a set of sequences corresponding to fragments of the amino-terminal portion of HMGN2 (SEQ ID NO: 5) were constructed to localize the region responsible for cell binding and in vivo homing. Fragments were designed to follow the exon/intron boundaries of the HMGN2 gene. Inserts encoding the indicated fragments were amplified from the full length HMGN2 phage clone by PCR, purified, digested and directionally cloned into the T7 415-1 and 10-3 vectors. Phage were packaged, amplified and sequenced according to the manufacturer's instructions. Phage preparations were then tested for binding to primary cells obtained from HL-60 xenograft tumors. After a 1 hour incubation at 4° C., cells were washed, and bound phage quantified. […] Furthermore, phage displaying the N-terminal portion of the active fragment SEQ ID NO: 9, which corresponds to exon 3 of the HMGN2 gene, were prepared. These phage expressing the sequence PQRRSARLSA (SEQ ID NO: 11) bound to tumor cells 90-fold more than non-recombinant phage.

ARALPSQRSR (not fully specified (N-terminus); also: fluorescein label) [SEQ ID NO: 13, fluorescein-labeled scrambled exon 3 control peptide]
number of cells in lower right quadrant (FACS) [1]: 1
percentage of cells in lower right quadrant (FACS) [1]: 0.0
fluorescence in tumor tissue (HL-60 xenograft tumors; fluorescein-conjugated peptide, about 15 minutes circulation): essentially undetectable in other tissues, including the HL-60 tumors
fluorescence in kidneys (HL-60 xenograft tumors; fluorescein-labeled peptide, non-specific uptake): diffuse fluorescence accumulated in proximal tubules of kidneys

D(KLAKLAK)2: antimicrobial, pro-apoptotic peptide
concentration inducing marked mitochondrial swelling (mitochondrial membranes): 10 µM

PKRRSARLSA [SEQ ID NO: 12]
reduction of HL-60 cell binding relative to HMGN2 phage expressing SEQ ID NO: 11 (HL-60 cells): 90%

PQRRSARLSA [SEQ ID NO: 11]
binding to tumor cells relative to non-recombinant phage [2]: 90 fold
